This passage reports Ki results from US20130252951A1, “7-HYDROXY-PYRAZOLO[1,5-A] PYRIMIDINE COMPOUNDS AND THEIR USE AS CCR2 RECEPTOR ANTAGONISTS” (Proximagen Limited, priority 2010, published 2013).

SMILES strings stand for the structures.

This experiment has as its target human CCR2 (Homo sapiens, UniProt P41597). In words: CCR2 functional calcium assay (FLIPR calcium flux, hMCP-1 challenge). Also noted: expressed in transfected cells; host or cells: HEK293 EBNA cells. The experiment is classed as cell-based. As to conditions: HEK293 EBNA cells transfected with human CCR2, hMCP-1 challenge; read-out: Functional CCR2 fKi. The text has this:
The CCR2 receptor couples through the Gi/Gq signaling pathway and results in activation of calcium mobilization. The functional activity of test compounds was routinely tested by measuring the ability of compounds to antagonize CCR2 activity in a dose dependent manner, in HEK293 EBNA cells transfected with the human CCR2 receptor (hMCP-1 challenge), using a calcium flux Fluorescent Imaging Plate Reader FLIPR assay. Non-transfected HEK293 EBNA cells were used as control of non-specific response.
Briefly, test compounds were dissolved in dimethyl sulfoxide (DMSO) to a concentration of 10 mM and stored in matrix screenmate racks. The required amount of compound was transferred to 96-well compound plates on the day of assay and diluted in assay buffer to the required final concentration; dose-response measurements were assayed by making 1:3 serial dilutions to produce 10 point curves. The compounds were then transferred to 384-well assay plates ready for use. Top concentrations were adjusted depending on the potency of the compounds with a typical concentration range of 30 μM to 0.5 nM being used. The assay buffer used was HBSS buffer supplemented with 20 mM HEPES and 0.1% BSA, pH7.4. The loading/wash buffers were the same as the assay buffer.
Cells were suspended in culture medium at a density of 10000 cells/50 μl (the cell culture media composition was DMEM high glucose supplemented with 10% dialyzed FBS, 250 μg/ml Geneticin, and 400 μg/ml Hygromycin B), transferred to 384-well black/clear Costar plates (Costar #3712) (50 μl/well) and incubated at 37° C., in a 5% CO2/95% air humidified incubator for 16 h. The cells were washed with assay buffer at 37° C. using the Biotek ELx 405, washing 3 times, leaving 20 μl buffer in the well. 20 μl Fluo-4 (Fluo-4 stock solution (1 mM) was prepared by dissolving one vial of Fluo-4 (50 μg) in 45 μl of pluronic acid (240 mg/ml in DMSO). This stock solution of Fluo-4 was then diluted 250 times with loading buffer to give a Fluo-4 concentration of 4 μM. The dye solution (used within 2 h and kept away from light) was added to each well using a repeating multichannel pipette; the cells were then incubated at 37° C. for 60 min. Following the incubation, cells were washed in assay buffer at 37° C. using the Biotek ELx 405, washing 3 times, leaving 40 μl in each well and incubated for 10 min at 37° C. before use. A combined agonist/antagonist protocol was used. Compound (antagonist) was added to the cell plate using the FLIPR. Basal fluorescence was recorded every second for 10 seconds prior to compound addition (10 μl) and fluorescence recorded every second for 1 minute then every 6 seconds for a further 1 minute. Agonist (MCP-1) was then added using the FLIPR and fluorescence recorded as described above.
The positive control (agonist) was human recombinant MCP-1 which was stored as a stock concentration of 10 μM in distilled water and stored at −20° C. (maximal response: 30 nM; EC50 dose: 3-5 nM). The reference compound (antagonist) was RS102895 which was used as a 10 mM DMSO solution and stored at −20° C.
FLIPR responses were measured as peak minus basal fluorescence intensity and were expressed as a percentage of EC50 MCP-1 challenge. Curve-fitting and parameter estimation were carried out using GraphPad Prism 4.0 (GraphPad Software Inc., San Diego, Calif.).

Sequence of human CCR2 (P41597 whole entry): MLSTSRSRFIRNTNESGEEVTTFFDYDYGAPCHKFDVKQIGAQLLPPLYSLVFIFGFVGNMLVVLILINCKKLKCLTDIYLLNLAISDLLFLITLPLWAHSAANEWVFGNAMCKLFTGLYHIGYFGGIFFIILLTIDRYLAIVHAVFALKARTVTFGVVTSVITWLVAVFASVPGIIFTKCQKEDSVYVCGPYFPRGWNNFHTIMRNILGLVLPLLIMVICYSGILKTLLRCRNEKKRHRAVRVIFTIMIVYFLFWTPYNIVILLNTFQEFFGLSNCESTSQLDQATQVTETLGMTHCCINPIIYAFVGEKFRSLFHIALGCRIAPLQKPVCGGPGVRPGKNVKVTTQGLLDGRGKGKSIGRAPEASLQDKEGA

For the compound `CCN(c1cccc(F)c1)c1c(C)nc2ccnn2c1O` [Example 79, 6-[Ethyl(3-fluorophenyl)amino]-5-methylpyrazolo[1,5-a]pyrimidin-7-ol], the Ki was 100 to 1000 nM.
As to `Cc1nc2ccnn2c(O)c1N(C)c1cccc(F)c1` [Example 80, 6-[(3-Fluorophenyl)(methyl)amino]-5-methylpyrazolo[1,5-a]pyrimidin-7-ol], the Ki is 100 to 1000 nM.
As to `COC(=O)c1nc2ccnn2c(O)c1Cc1cccc(Cl)c1` [Example 81, Methyl 6-[(3-chlorophenyl)methyl]-7-hydroxypyrazolo[1,5-a]pyrimidine-5-carboxylate], the Ki was below 10 nM.
For the compound `CC(C)OC(=O)c1nc2ccnn2c(O)c1Cc1cccc(Cl)c1` [Example 82, Propan-2-yl 6-[(3-chlorophenyl)methyl]-7-hydroxypyrazolo[1,5-a]pyrimidine-5-carboxylate], the Ki was below 10 nM.
For the compound `COC(=O)c1nc2ccnn2c(O)c1Cc1ccc(Cl)c(Cl)c1` [Example 83, Methyl 6-[(3,4-dichlorophenyl)methyl]-7-hydroxypyrazolo[1,5-a]pyrimidine-5-carboxylate], the Ki was below 10 nM.
As for `CC(C)OC(=O)c1nc2ccnn2c(O)c1Cc1ccc(Cl)c(Cl)c1` [Example 84, Propan-2-yl 6-[(3,4-dichlorophenyl)-methyl]-7-hydroxy pyrazolo[1,5-a]-pyrimidine-5-carboxylate], the Ki was below 10 nM.
As to `O=C(O)c1nc2ccnn2c(O)c1Cc1cccc(Cl)c1` [Example 85, 6-[(3-Chlorophenyl)methyl]-7-hydroxypyrazolo[1,5-a]pyrimidine-5-carboxylic acid], the Ki lay in the range of 100 to 1000 nM.
Turning to `CC(C)OC(=O)c1nc2ccnn2c(O)c1Cc1cccc(C(F)(F)F)c1` [Example 86, Propan-2-yl7-hydroxy-6-{[3-(trifluoromethyl)phenyl]methyl}pyrazolo[1,5-a]pyrimidine-5-carboxylate], the Ki fell in the range of 10 to 100 nM.
Regarding `CC(C)OC(=O)c1nc2ccnn2c(O)c1Cc1ccc(F)c(Cl)c1` [Example 87, Propan-2-yl6-[(3-chloro-4-fluorophenyl)methyl]-7-hydroxypyrazolo[1,5-a]pyrimidine-5-carboxylate], the Ki was below 10 nM.
Next, `CC(C)OC(=O)c1nc2ccnn2c(O)c1Cc1ccc(Cl)c(F)c1` [Example 88, Propan-2-yl6-[(4-chloro-3-fluorophenyl)methyl]-7-hydroxypyrazolo[1,5-a]pyrimidine-5-carboxylate]: below 10 nM.
Take `COC(=O)c1nc2ccnn2c(O)c1Oc1ccc(Cl)c(Cl)c1` [Example 89, Methyl 6-(3,4-dichlorophenoxy)-7-hydroxypyrazolo[1,5-a]pyrimidine-5-carboxylate]: the Ki is below 10 nM.
In the case of `OCc1nc2ccnn2c(O)c1Cc1ccc(Cl)cc1` [Example 90, 6-[(4-Chlorophenyl)methyl]-5-(hydroxymethyl)pyrazolo[1,5-a]pyrimidin-7-ol], the Ki was in the range of 100 to 1000 nM.
Consider `Oc1c(Cc2ccc(Cl)cc2)c(CN2CCOCC2)nc2ccnn12` [Example 91, 6-[(4-Chlorophenyl)methyl]-5-(morpholin-4-ylmethyl)pyrazolo[1,5-a]pyrimidin-7-ol], for which the Ki lay within 100 to 1000 nM.
Turning to `Cc1noc(-c2nc3ccnn3c(O)c2Cc2cccc(F)c2)n1` [Example 92, 6-[(3-Fluorophenyl)methyl]-5-(3-methyl-1,2,4-oxadiazol-5-yl)pyrazolo[1,5-a]pyrimidin-7-ol], the Ki is 100 to 1000 nM.
As to `CC(C)(O)c1nc2ccnn2c(O)c1Cc1cccc(F)c1` [Example 93, 6-[(3-Fluorophenyl)methyl]-5-(2-hydroxypropan-2-yl)pyrazolo[1,5-a]pyrimidin-7-ol], the Ki fell in the range of 100 to 1000 nM.
The figure for `CC(=O)c1nc2ccnn2c(O)c1Cc1cccc(F)c1` [Example 94, 1-{6-[(3-Fluorophenyl)methyl]-7-hydroxypyrazolo[1,5-a]pyrimidin-5-yl}ethan-1-one] is 10 to 100 nM.
As for `CC(O)c1nc2ccnn2c(O)c1Cc1cccc(F)c1` (stereo not drawn) [Example 95, 6-[(3-Fluorophenyl)methyl]-5-(1-hydroxyethyl)pyrazolo[1,5-a]pyrimidin-7-ol], the Ki was 100 to 1000 nM.
`CC(=O)c1nc2ccnn2c(O)c1Cc1ccc(Cl)c(Cl)c1` [Example 96, 1-{6-[(3,4-Dichlorophenyl)methyl]-7-hydroxypyrazolo[1,5-a]pyrimidin-5-yl}ethan-1-one]: the Ki fell in the range of 10 to 100 nM.
Turning to `CCC(=O)c1nc2ccnn2c(O)c1Cc1ccc(Cl)c(Cl)c1` [Example 97, 1-{6-[(3,4-Dichlorophenyl)methyl]-7-hydroxypyrazolo[1,5-a]pyrimidin-5-yl}propan-1-one], the Ki was 10 to 100 nM.
The figure for `Cc1noc(Cc2nc3ccnn3c(O)c2Cc2ccc(Cl)cc2)n1` [Example 98, 6-[(4-Chlorophenyl)methyl]-5-[(3-methyl-1,2,4-oxadiazol-5-yl)methyl]pyrazolo[1,5-a]-pyrimidin-7-ol] is 100 to 1000 nM; for `CNC(=O)c1cnn2c(O)c(Cc3ccc(Cl)cc3)c(C)nc12` [Example 99, 6-[(4-Chlorophenyl)methyl]-7-hydroxy-N,5-dimethylpyrazolo[1,5-a]pyrimidine-3-carboxamide] it is 100 to 1000 nM.
Turning to `Cc1nc2c(C(=O)N(C)C)cnn2c(O)c1Cc1ccc(Cl)cc1` [Example 100, 6-[(4-Chlorophenyl)methyl]-7-hydroxy-N,N,5-trimethylpyrazolo[1,5-a]pyrimidine-3-carboxamide], the Ki was in the range of 100 to 1000 nM.
For `Cc1nc2c(C(=O)NC[C@H]3CCCO3)cnn2c(O)c1Cc1ccc(Cl)cc1` [Example 101, 6-[(4-Chlorophenyl)methyl]-7-hydroxy-5-methyl-N-[(2R)-oxolan-2-ylmethyl]-pyrazolo[1,5-a]pyrimidine-3-carboxamide], the Ki was 100 to 1000 nM.
The figure for `COCCNC(=O)c1cnn2c(O)c(Cc3ccc(C)cc3)c(C)nc12` [Example 102, 7-Hydroxy-N-(2-methoxyethyl)-5-methyl-6-[(4-methylphenyl)methyl]pyrazolo[1,5-a]pyrimidine-3-carboxamide] is 100 to 1000 nM; for `Cc1nc2c(C(=O)NCCOc3ccccc3)cnn2c(O)c1Cc1ccccc1` [Example 103, 6-Benzyl-7-hydroxy-5-methyl-N-(2-phenoxyethyl)pyrazolo[1,5-a]pyrimidine-3-carboxamide] it is 100 to 1000 nM; for `Cc1nc2c(C(=O)N3CCN(C)CC3)cnn2c(O)c1Cc1ccc(Cl)cc1` [Example 104, 6-[(4-Chlorophenyl)methyl]-5-methyl-3-[(4-methylpiperazin-1-yl)carbonyl]pyrazolo [1,5-a]pyrimidin-7-ol] it is 100 to 1000 nM.
For the compound `Cc1nc2c(C(=O)NCCc3ccccc3)cnn2c(O)c1Cc1ccc(Cl)cc1` [Example 105, 6-[(4-Chlorophenyl)methyl]-7-hydroxy-5-methyl-N-(2-phenylethyl)pyrazolo[1,5-a]pyrimidine-3-carboxamide], the Ki fell in the range of 100 to 1000 nM.
As for `C=CCNC(=O)c1cnn2c(O)c(Cc3ccc(Cl)cc3)c(C)nc12` [Example 106, 6-[(4-Chlorophenyl)methyl]-7-hydroxy-5-methyl-N-(prop-2-en-1-yl)pyrazolo[1,5-a]-pyrimidine-3-carboxamide], the Ki was in the range of 100 to 1000 nM.
Turning to `COCCNC(=O)c1cnn2c(O)c(Cc3ccc(Cl)cc3)c(C)nc12` [Example 107, 6-[(4-Chlorophenyl)methyl]-7-hydroxy-N-(2-methoxyethyl)-5-methylpyrazolo[1,5-a]-pyrimidine-3-carboxamide], the Ki lay within 10 to 100 nM.
For the compound `CSCCNC(=O)c1cnn2c(O)c(Cc3ccc(Cl)cc3)c(C)nc12` [Example 108, 6-[(4-Chlorophenyl)methyl]-7-hydroxy-5-methyl-N-[2-(methylsulfanyl)ethyl] pyrazolo[1,5-a]pyrimidine-3-carboxamide], the Ki fell in the range of 100 to 1000 nM.
